From US5451601A, “Perhydroisoindole derivatives and pharmaceutical compositions containing them” (Rhone-Poulenc Rorer S.A., priority 1991, dated 1995) come the findings set out here.

A word on the ED50: it is the dose at which the effect has come halfway, by size or by number of responders.

Assay type in all cases: in vivo
Experiment [1] can be described thus: analgesic activity, technique of Siegmund E. et al. To be noted: po. From the text: Exp. Biol. Med., 95, 729 (1957).
Experiment [2] has as its system septide (agonist of substance P). The experiment can be described thus: inhibition of the increase in capillary permeability brought about by septide, technique of A. Saria et al. adapted to mice. Conditions: Mus musculus, sc, septide-induced increase in capillary permeability. The source says: The study of a number of isoindole derivatives of general formula (I) according to the technique of A. Saria et al., Arch.

For experiment [3], the system named is substance P. The experiment can be described thus: antagonism of the hypotension induced by substance P, technique of C. A. Maggi et al. Conditions: rats; product 1 mg/kg i.v./min for 5 min; hypotension induced by i.v. injection of substance P. The source says: Injection of substance P into animals produces hypotension. The products studied in the technique of C. A. Maggi et al., J. Auton.

The structures appear in SMILES notation.

Turning to `CN(C)CCCOc1ccccc1CC(=O)N1C[C@@H]2[C@H](F)CCC(c3ccccc3)(c3ccccc3)[C@@H]2C1.Cl` [Example 1, (3aR,7R,7aR)-2-{[2-(3-dimethylaminopropoxy)phenyl]acetyl}-4,4-diphenyl-7-fluoroperhydroisoindole hydrochloride], the 50% effective dose (ED50) in experiment [1] is 3 mg/kg; in experiment [2], 0.7 mg/kg. Besides, the “% inhibition of hypotension” value in experiment [3] amounted to 73%.

Take `COc1ccccc1[C@H](C)C(=O)N1C[C@@H]2[C@H](F)CCC(c3ccccc3)(c3ccccc3)[C@@H]2C1` [Example 7, (3aR,7R,7aR)-4,4-diphenyl-7-fluoro-2-[(S)-2-(2-methoxyphenyl)propionyl]perhydroisoindole]: the ED50 in experiment [1] came out at 1.5 mg/kg; in experiment [2], 0.32 mg/kg.

For `O=C(Cc1ccccc1OCCCN1CCCC1)N1C[C@@H]2[C@H](F)CCC(c3ccccc3)(c3ccccc3)[C@@H]2C1` [Example 2], the ED50 was 2 mg/kg in experiment [1] and 0.3 mg/kg in experiment [2]. For the same compound, the “% inhibition of hypotension” value in experiment [3] is listed as 68%.
